Assay results published in publication PMC11631053, “A receptor-based assay to study the sweet and bitter tastes of sweeteners and binary sweet blends: the SWEET project” (Chemical Senses, 2024).
Where “and” joins values, the source holds several entries; their conditions need not be identical. Equal values may be shown once.

Columns and labels:
TAS2R16 = molecular target: T1, TAS2R16 (Homo sapiens, UniProt Q9NYV7); experiment: Calcium mobilization assay, HEK293T-Gα16gust44 cells expressing TAS2R16; conditions: for Response of TAS2R16: maximal concentration tested: sucralose 100 mM, neotame 30 µM, Ace-K 300 mM, RebA 4 mM, RebM 4 mM, mogroside V 5 mM, erythritol 200 mM, D-allulose 500 mM, thaumatin 100 mM
T1 sequence (Q9NYV7 1-291): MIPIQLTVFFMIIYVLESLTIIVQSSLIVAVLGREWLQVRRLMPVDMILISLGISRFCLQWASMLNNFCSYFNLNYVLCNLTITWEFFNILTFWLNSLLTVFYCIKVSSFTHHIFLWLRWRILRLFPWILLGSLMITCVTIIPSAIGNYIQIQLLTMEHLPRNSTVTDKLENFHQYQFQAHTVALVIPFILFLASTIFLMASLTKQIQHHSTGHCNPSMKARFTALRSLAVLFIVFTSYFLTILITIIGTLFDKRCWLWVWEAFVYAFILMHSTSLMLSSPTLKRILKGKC
Method: (§1) Different concentration ranges were tested depending on the injected sweet compound. […] All of the concentration-receptor combinations were measured in triplicate, and each experiment was repeated at least 3 times. The Ca^2+ change was expressed as a fractional change in fluorescent light intensity: ΔF/F = (F − F0)/F0, where F was the fluorescent light intensity at each point, and F0 was the value of fluorescent light emitted prior to stimulus application. To calculate dose–response relationships, the changes in fluorescence upon stimulus application were averaged, mock-subtracted and baseline-corrected. The resulting obtained dose–response data were adjusted by using a 4-parameter logistic equation.

TAS2R20 = molecular target: T2, TAS2R20 (Homo sapiens, UniProt P59543); experiment: Calcium mobilization assay, HEK293T-Gα16gust44 cells expressing TAS2R20; conditions: maximal concentration tested: sucralose 100 mM, neotame 30 µM, Ace-K 300 mM, RebA 4 mM, RebM 4 mM, mogroside V 5 mM, erythritol 200 mM, D-allulose 500 mM, thaumatin 100 mM
T2 sequence (P59543 1-309): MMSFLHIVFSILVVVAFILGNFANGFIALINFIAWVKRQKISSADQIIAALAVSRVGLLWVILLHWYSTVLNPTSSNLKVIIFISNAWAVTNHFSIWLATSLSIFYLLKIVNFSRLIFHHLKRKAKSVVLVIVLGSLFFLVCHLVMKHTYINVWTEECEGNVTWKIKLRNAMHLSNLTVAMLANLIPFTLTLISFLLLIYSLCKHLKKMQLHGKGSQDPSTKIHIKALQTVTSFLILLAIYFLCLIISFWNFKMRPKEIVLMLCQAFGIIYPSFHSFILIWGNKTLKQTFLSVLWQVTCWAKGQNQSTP
Method: as §1

TAS2R14 = molecular target: T3, TAS2R14 (Homo sapiens, UniProt Q9NYV8); experiment: Calcium mobilization assay, HEK293T-Gα16gust44 cells expressing TAS2R14; conditions: maximal concentration tested: sucralose 100 mM, neotame 30 µM, Ace-K 300 mM, RebA 4 mM, RebM 4 mM, mogroside V 5 mM, erythritol 200 mM, D-allulose 500 mM, thaumatin 100 mM
T3 sequence (Q9NYV8 1-317): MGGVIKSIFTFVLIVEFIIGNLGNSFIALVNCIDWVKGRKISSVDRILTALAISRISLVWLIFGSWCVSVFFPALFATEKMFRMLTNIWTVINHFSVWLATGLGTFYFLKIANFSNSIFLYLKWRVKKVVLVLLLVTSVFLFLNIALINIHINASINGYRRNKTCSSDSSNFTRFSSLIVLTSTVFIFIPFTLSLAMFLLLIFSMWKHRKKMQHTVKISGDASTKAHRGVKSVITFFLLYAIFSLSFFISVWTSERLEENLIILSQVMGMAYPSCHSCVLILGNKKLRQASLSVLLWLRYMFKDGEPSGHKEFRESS
Method: as §1

TAS2R40 = TAS2R40 (Homo sapiens, UniProt P59535); experiment: Calcium mobilization assay, HEK293T-Gα16gust44 cells expressing TAS2R40; conditions: maximal concentration tested: sucralose 100 mM, neotame 30 µM, Ace-K 300 mM, RebA 4 mM, RebM 4 mM, mogroside V 5 mM, erythritol 200 mM, D-allulose 500 mM, thaumatin 100 mM
Method: as §1

TAS2R4 = molecular target: T4, TAS2R4 (Homo sapiens, UniProt Q9NYW5); experiment: Calcium mobilization assay, HEK293T-Gα16gust44 cells expressing TAS2R4; conditions: maximal concentration tested: sucralose 100 mM, neotame 30 µM, Ace-K 300 mM, RebA 4 mM, RebM 4 mM, mogroside V 5 mM, erythritol 200 mM, D-allulose 500 mM, thaumatin 100 mM
T4 sequence (Q9NYW5 1-299): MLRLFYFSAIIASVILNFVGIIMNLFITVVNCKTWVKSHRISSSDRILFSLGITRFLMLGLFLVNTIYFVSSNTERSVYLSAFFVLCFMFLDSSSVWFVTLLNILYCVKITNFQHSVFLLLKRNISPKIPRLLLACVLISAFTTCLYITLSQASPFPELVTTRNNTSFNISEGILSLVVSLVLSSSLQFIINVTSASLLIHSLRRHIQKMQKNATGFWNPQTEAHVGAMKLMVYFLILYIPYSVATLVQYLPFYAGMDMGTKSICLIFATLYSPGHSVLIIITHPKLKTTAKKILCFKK
Method: (§2) Different concentration ranges were tested depending on the injected sweet compound. […] All of the concentration-receptor combinations were measured in triplicate, and each experiment was repeated at least 3 times. The Ca^2+ change was expressed as a fractional change in fluorescent light intensity: ΔF/F = (F − F0)/F0, where F was the fluorescent light intensity at each point, and F0 was the value of fluorescent light emitted prior to stimulus application. To calculate dose–response relationships, the changes in fluorescence upon stimulus application were averaged, mock-subtracted and baseline-corrected. The resulting obtained dose–response data were adjusted by using a 4-parameter logistic equation. The half-maximal effective concentration (EC50) was calculated by using SigmaPlot software (Systat Software, San Jose, CA, USA) as described in supplemental Supplementary Figs. S1, S2, and S3.

TAS2R5 = molecular target: T5, TAS2R5 (Homo sapiens, UniProt Q9NYW4); experiment: Calcium mobilization assay, HEK293T-Gα16gust44 cells expressing TAS2R5; conditions: maximal concentration tested: sucralose 100 mM, neotame 30 µM, Ace-K 300 mM, RebA 4 mM, RebM 4 mM, mogroside V 5 mM, erythritol 200 mM, D-allulose 500 mM, thaumatin 100 mM
T5 sequence (Q9NYW4 1-299): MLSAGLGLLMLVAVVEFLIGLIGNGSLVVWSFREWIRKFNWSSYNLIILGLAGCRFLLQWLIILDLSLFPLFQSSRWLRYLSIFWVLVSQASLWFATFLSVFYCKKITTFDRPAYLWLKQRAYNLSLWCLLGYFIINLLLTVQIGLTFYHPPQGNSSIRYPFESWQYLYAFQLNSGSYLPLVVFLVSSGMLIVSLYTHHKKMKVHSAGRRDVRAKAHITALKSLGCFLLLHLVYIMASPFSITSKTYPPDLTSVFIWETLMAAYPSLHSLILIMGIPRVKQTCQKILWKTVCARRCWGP
Method: as §2

TAS2R30 = molecular target: T6, TAS2R30 (Homo sapiens, UniProt P59541); experiment: Calcium mobilization assay, HEK293T-Gα16gust44 cells expressing TAS2R30; conditions: for Response of TAS2R30: maximal concentration tested: sucralose 100 mM, neotame 30 µM, Ace-K 300 mM, RebA 4 mM, RebM 4 mM, mogroside V 5 mM, erythritol 200 mM, D-allulose 500 mM, thaumatin 100 mM
T6 sequence (P59541 1-319): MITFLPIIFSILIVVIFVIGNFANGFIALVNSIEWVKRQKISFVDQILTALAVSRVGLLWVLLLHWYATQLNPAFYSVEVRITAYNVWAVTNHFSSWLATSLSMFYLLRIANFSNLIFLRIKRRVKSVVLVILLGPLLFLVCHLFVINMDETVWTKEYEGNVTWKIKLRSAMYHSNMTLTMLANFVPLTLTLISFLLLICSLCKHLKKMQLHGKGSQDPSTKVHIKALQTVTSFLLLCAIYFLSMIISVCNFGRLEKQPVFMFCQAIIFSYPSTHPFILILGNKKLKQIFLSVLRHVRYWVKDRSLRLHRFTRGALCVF
Method: as §1

TAS2R46 = molecular target: T7, TAS2R46 (Homo sapiens, UniProt P59540); experiment: Calcium mobilization assay, HEK293T-Gα16gust44 cells expressing TAS2R46; conditions: for Response of TAS2R46: maximal concentration tested: sucralose 100 mM, neotame 30 µM, Ace-K 300 mM, RebA 4 mM, RebM 4 mM, mogroside V 5 mM, erythritol 200 mM, D-allulose 500 mM, thaumatin 100 mM
T7 sequence (P59540 1-309): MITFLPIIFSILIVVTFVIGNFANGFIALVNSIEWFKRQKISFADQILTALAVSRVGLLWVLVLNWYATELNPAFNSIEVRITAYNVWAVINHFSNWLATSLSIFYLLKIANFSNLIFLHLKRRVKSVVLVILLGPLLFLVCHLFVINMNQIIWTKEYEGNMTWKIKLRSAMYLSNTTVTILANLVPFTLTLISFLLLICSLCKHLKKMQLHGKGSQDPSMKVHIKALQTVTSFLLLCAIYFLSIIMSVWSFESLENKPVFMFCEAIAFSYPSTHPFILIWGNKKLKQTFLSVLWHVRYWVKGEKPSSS
Method: as §1

Sequence of TAS2R40 (P59535 whole entry): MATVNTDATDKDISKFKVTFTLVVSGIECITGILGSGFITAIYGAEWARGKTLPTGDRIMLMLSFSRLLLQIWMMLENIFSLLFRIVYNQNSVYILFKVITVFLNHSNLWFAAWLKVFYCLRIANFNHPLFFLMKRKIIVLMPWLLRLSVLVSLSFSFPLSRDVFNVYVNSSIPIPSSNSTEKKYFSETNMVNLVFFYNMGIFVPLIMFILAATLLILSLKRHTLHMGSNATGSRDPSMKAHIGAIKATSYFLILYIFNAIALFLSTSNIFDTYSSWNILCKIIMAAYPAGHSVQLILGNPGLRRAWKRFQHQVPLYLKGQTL

Molecule	Response of TAS2R16 (TAS2R16)	Response of TAS2R20 (TAS2R20)	Response of TAS2R14 (TAS2R14)	Response of TAS2R40 (TAS2R40)	Response of TAS2R4 (TAS2R4)	Response of TAS2R5 (TAS2R5)	Response of TAS2R30 (TAS2R30)	Response of TAS2R46 (TAS2R46)	EC50 (TAS2R46; TAS2R46 EC50)	concentrations at which TAS2R16 was activated (TAS2R16) [mM]	concentrations at which TAS2R30 was activated (TAS2R30) [mM]	EC50 (TAS2R16; read-out: TAS2R16 EC50) [mM]
O=C(CO)[C@H](O)[C@H](O)[C@H](O)CO [D-allulose]	+	−	+	−	−	−	+	−		> 300	> 300	
C[C@H](CC[C@@H](O[C@@H]1O[C@H](CO[C@@H]2O[C@H](CO)[C@@H](O)[C@H](O)[C@H]2O)[C@@H](O)[C@H](O)[C@H]1O[C@@H]1O[C@H](CO)[C@@H](O)[C@H](O)[C@H]1O)C(C)(C)O)[C@H]1CC[C@@]2(C)[C@@H]3CC=C4[C@@H](CC[C@H](O[C@@H]5O[C@H](CO[C@@H]6O[C@H](CO)[C@@H](O)[C@H](O)[C@H]6O)[C@@H](O)[C@H](O)[C@H]5O)C4(C)C)[C@]3(C)[C@H](O)C[C@]12C [Mogroside V, mogroside V]	+	−	−	−	−	−	−	−				1.18 ± 0.44
OC[C@@H](O)[C@@H](O)CO [Erythritol, erythritol]	−	−	−	−	−	−	−	−				
COC(=O)[C@H](Cc1ccccc1)NC(=O)[C@H](CC(=O)O)NCCC(C)(C)C [Neotame]	−	−	−	−	−	−	−	−				
CC1=CC(=O)NS(=O)(=O)O1 [Ace-K, acesulfame-K]	−	−	−	−	−	−	−	−				

Continued, in another order:

Response of TAS2R16 (TAS2R16)	Response of TAS2R20 (TAS2R20)	Response of TAS2R14 (TAS2R14)	Response of TAS2R40 (TAS2R40)	Response of TAS2R4 (TAS2R4)	Response of TAS2R5 (TAS2R5)	Response of TAS2R30 (TAS2R30)	Response of TAS2R46 (TAS2R46)	EC50 (TAS2R46; TAS2R46 EC50)	Molecule	concentrations at which TAS2R16 was activated (TAS2R16) [mM]	concentrations at which TAS2R30 was activated (TAS2R30) [mM]	EC50 (TAS2R16; read-out: TAS2R16 EC50) [mM]
−	−	−	−	−	−	−	−		C=C1C[C@@]23CC[C@H]4[C@@](C)(CCC[C@@]4(C)C(=O)O[C@@H]4O[C@H](CO)[C@@H](O)[C@H](O[C@@H]5O[C@H](CO)[C@@H](O)[C@H](O)[C@H]5O)[C@H]4O[C@@H]4O[C@H](CO)[C@@H](O)[C@H](O)[C@H]4O)[C@@H]2CC[C@]1(O[C@@H]1O[C@H](CO)[C@@H](O)[C@H](O[C@@H]2O[C@H](CO)[C@@H](O)[C@H](O)[C@H]2O)[C@H]1O[C@@H]1O[C@H](CO)[C@@H](O)[C@H](O)[C@H]1O)C3 [RebM, Rebaudioside M]			
−	−	−	−	−	−	−	−		thaumatin			
−	−	−	−	−	−	−	#^a	3 mM and ≥ 3 mM	OC[C@H]1O[C@H](O[C@]2(CCl)O[C@H](CCl)[C@@H](O)[C@@H]2O)[C@H](O)[C@@H](O)[C@H]1Cl [Sucralose, sucralose]			
